In patent US20030055052A1, “FAP-activated anti-tumor compounds” (priority 2000, published 2003):

Molecular target: T1, FAP (Homo sapiens, UniProt Q12884)
T1 construct: expressed in transfected cells; host or cells: human embryonic kidney 293 cells stably transfected with pFAP.38; cell extract used
T1 sequence (Q12884 1-760): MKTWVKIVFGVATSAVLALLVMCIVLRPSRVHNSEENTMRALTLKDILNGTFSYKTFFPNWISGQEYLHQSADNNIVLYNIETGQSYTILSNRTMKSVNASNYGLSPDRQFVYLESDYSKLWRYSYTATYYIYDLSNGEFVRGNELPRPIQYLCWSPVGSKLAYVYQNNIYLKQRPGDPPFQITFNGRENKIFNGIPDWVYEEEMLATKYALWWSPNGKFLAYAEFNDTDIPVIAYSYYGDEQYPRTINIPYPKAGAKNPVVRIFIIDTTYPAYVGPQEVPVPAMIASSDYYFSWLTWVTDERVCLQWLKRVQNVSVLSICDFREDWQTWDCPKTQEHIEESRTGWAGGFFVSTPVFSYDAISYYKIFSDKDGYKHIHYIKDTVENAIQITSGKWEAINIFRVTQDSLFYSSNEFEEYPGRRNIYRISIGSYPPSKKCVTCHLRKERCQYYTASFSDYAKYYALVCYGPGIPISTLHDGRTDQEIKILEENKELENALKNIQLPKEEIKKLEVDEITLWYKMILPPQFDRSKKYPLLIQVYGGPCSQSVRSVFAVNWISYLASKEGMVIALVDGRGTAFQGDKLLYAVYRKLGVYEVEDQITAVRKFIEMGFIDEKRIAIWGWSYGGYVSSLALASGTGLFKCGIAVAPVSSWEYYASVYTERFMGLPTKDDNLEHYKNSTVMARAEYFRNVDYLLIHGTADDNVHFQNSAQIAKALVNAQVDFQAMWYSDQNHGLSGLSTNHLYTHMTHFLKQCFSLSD
Assay: Assay for cleavage of AMCA substrates by FAP
Assay type: biochemical
Conditions: 1 ng FAP enzyme (FAP-transfected 293 cell extract), 20 μl 2.5 mM substrate, room temperature, 1 hour; control 293 extract subtracted
Description: Assay for Cleavage of AMCA Substrates by FAP:
Cell extract from 293 cells stably transfected with FAP prepared as described (see Park, et al., Fibroblast Activation Protein, a Dual Specificity Serine Protease expressed in human tumor stromal fibroblasts. (1999) J. Biol. Chem. 36505-12.). A similar extract was also prepared from parental 293 control cells without FAP. The FAP concentration in the FAP-transfected cell extract was estimated by immunoassay and 1 ng enzyme (diluted in buffer A) was used per assay. FAP-negative 293 control cell extract was used at the same dilution (also in buffer A) as a negative control. Substrate was initially dissolved in dimethylformamide at a concentration of 200 mM and diluted in buffer A to a final concentration of 2.5 mM. A few substrates were not soluble at this concentration and had to be diluted further.
10 μl 10% DMSO in buffer A
70 ll diluted FAP cell extract containing 1 ng FAP enzyme (OR control 293 cell extract without FAP)
Mix, incubate at room temperature for 1 hour, and measure fluorescence in Fluorostar fluorimeter at the following wavelengths:
AMCA conjugates: Excitation: 390 nm, Emission: 440 nm.
The fluorescence measured in the samples treated with control 293 control cell extracts without FAP is subtracted from the values measured in the samples treated with 1 ng FAP enzyme.

Row | Substance | Cleavage [µM] | Turnover [%]
1 | Z-Imi-Ala-Gly-Pro-AMCA | 0.61 | 0.12
2 | Z-Thz-Ala-Gly-Pro-AMCA-OH | 1.11 | 0.22
